Source: patent publication US9464060B2, “Compounds” (TAKEDA PHARMACEUTICAL COMPANY LIMITED, priority 2013, dated 2016)

Experiments:
LPA5 receptor [1] = target: LPA5 receptor (Homo sapiens (Human), UniProt Q9H1C0); assay: In vitro LPA5 receptor assay (LPA-driven intracellular calcium release, FLIPR); format: cell-based; conditions: RH7777 cells expressing human LPA5 receptors; LPA at EC90
Description: In Vitro LPA5 Receptor Assay
(§1) Engagement of the LPA5 receptor by its ligand, oleoyl-L-α-lysophosphatidic acid (LPA), leads to the release of intracellular stores of calcium into the cytoplasm mediated through a Gq-driven increase in inositol triphosphate (IP3) levels. Gq is a heterotrimeric G protein subunit that activates phospholipase C.
The ability of test compounds to prevent LPA-driven intracellular release of stored calcium from RH7777 cells expressing human LPA5 receptors was assayed by stimulating the cells with LPA in the presence of various test compounds to measure the test compounds'antagonism, i.e. activity in vitro.
(§2) Approximately 10,000 cells in normal culture medium (Minimal Essential Media, 10% Foetal Calf Serum) were dispensed per assay well in a black clear bottom poly-D-lysine coated 384 well plate (Corning). Cells were allowed to settle for thirty minutes at room temperature before being incubated overnight at 37° C., 5% CO2. Sixteen to twenty hours after dispensing, the cells were loaded with a calcium-sensitive fluorescent dye by replacing the culture medium with assay buffer (1× Hanks buffered saline, 25 mM HEPES, 0.1% w/v fatty acid free BSA (bovine serum albumin), pH7.4) containing 1.25 mM probenecid and 1× Calcium 5 Reagent (Molecular Devices). Cells were incubated at 37° C. for one hour to allow for dye uptake.
(§3) To test for antagonist activity, test compounds at a final concentration range between 0.32 nM-10 μM (diluted in assay buffer) were added to the assay wells and allowed to incubate for fifteen minutes. […] Ligand-dependent changes in intracellular calcium levels were determined by measuring changes in fluorescence of the dye over […] following excitation over […].

LPA5 receptor [2] = assay: In vivo farnesyl pyrophosphate-induced hyperalgesia model (Randall-Selitto); conditions: rat, route po, FPP-induced hyperalgesia
Description: In Vivo Farnesyl Pyrophosphate-Induced Inflammatory Model
The FPP-induced hyperalgesia model is a pharmacodynamic rat model which involves inducing pain by injecting FPP, an agonist of LPA5 receptor, into the plantar surface of the hindpaw.
Withdrawal responses were reassessed at 30 and 90 minutes after injection of FPP in the ipsilateral paw.

human LPA1 receptors = human LPA1 receptors (Homo sapiens (Human), UniProt Q92633); assay: In vitro LPA1 receptor assay (LPA-driven intracellular calcium release, FLIPR); format: cell-based; conditions: RH7777 cells expressing human LPA1 receptors; LPA at EC80
Description: In Vitro LPA1 Receptor Assay
as §1, with “LPA1” for “LPA5”
The ability of test compounds to prevent LPA-driven intracellular release of stored calcium from RH7777 cells expressing human LPA1 receptors was assayed by stimulating the cells with LPA in the presence of various test compounds to measure the test compounds' antagonism, i.e. activity in vitro.
as §2, with “(Dulbecco's Modified Eagle” for “(Minimal Essential”, “collagen” for “poly-D-lysine”, “(Beckton Dickinson).” for “(Corning).”
as §3, with “twenty five” for “fifteen”

Sequence of LPA5 receptor (Homo sapiens (Human), UniProt Q9H1C0) (Q9H1C0 whole entry): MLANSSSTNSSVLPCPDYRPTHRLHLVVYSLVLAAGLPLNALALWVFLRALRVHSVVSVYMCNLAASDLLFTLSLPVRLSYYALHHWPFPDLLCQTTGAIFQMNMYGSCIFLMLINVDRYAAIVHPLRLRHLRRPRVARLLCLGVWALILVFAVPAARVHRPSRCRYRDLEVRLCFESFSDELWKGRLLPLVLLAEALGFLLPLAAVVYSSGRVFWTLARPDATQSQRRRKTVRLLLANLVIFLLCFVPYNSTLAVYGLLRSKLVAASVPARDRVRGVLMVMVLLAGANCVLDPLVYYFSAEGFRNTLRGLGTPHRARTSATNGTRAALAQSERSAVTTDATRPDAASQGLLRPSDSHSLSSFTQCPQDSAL
Sequence of human LPA1 receptors (Q92633 whole entry): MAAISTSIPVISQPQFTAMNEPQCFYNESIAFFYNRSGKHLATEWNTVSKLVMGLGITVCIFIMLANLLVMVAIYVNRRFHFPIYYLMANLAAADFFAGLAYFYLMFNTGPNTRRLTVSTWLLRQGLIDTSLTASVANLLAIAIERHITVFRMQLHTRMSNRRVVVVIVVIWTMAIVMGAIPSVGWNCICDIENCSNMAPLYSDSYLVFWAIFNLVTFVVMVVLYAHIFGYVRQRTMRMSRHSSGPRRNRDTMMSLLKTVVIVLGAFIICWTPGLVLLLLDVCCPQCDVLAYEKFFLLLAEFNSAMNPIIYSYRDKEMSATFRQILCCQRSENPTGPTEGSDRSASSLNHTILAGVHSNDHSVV

SMILES | IC50 (LPA5 receptor [1]) | In vivo efficacy (minimum effective dose (MED) (LPA5 receptor [2]) | IC50 (human LPA1 receptors)
CC(C)CCN(Cc1ccc(C(=O)O)cc1)C(=O)c1ccc(Oc2ccccc2F)cc1 [Example 8, 4-((4-(2-Fluorophenoxy)-N-isopentylbenzamido)methyl)benzoic acid] | 32 nM | 100 mg/kg | 46 nM
Cc1cccc(F)c1Oc1ccc(C(=O)N(Cc2ccc(C(=O)O)cc2)CC2CC2)cc1 [Example 40, 4-((N-(Cyclopropylmethyl)-4-(2-fluoro-6-methylphenoxy)-benzamido)methyl)benzoic acid] | 31 nM | 60 mg/kg | 160 nM
COc1ccccc1Oc1ccc(C(=O)N(Cc2ccc(C(=O)O)cc2)CC(C)(F)F)cc1 [Example 63, 4-((N-(2,2-Difluoropropyl)-4-(2-methoxyphenoxy)-benzamido)methyl)benzoic acid] | 10 nM | – | 7 nM
Cc1cccc(C)c1Oc1ccc(C(=O)N(CCC(C)C)Cc2ccc(C(=O)O)cc2)cc1 [Example 45, 4-((4-(2,6-Dimethylphenoxy)-N-isopentylbenzamido)methyl)benzoic acid] | 99 nM | – | 75 nM
CCCCN(Cc1ccc(C(=O)O)cc1)C(=O)c1ccc(Oc2ccccc2F)cc1 [Example 75, 4-((N-Butyl-4-(2-fluorophenoxy)benzamido)methyl)benzoic acid] | 22 nM | – | 31 nM
COc1ccccc1Oc1ccc(C(=O)N(CCC(F)(F)F)Cc2ccc(C(=O)O)cc2)cc1 [Example 64, 4-((4-(2-Methoxyphenoxy)-N-(3,3,3-trifluoropropyl)-benzamido)methyl)benzoic acid] | 7 nM | – | 9 nM
O=C(O)c1ccc(CN(CC2CC2)C(=O)c2ccc(Oc3ccccc3F)cn2)cc1 [Example 77, 4-((N-(Cyclopropylmethyl)-5-(2-fluorophenoxy)picolinamido)methyl)benzoic acid] | 74 nM | – | 86 nM
COc1ccccc1Oc1cnc(C(=O)N(Cc2ccc(C(=O)O)cc2)CC2CC2)nc1 [Example 84, 4-((N-(Cyclopropylmethyl)-5-(2-methoxyphenoxy)pyrimidine-2-carboxamido)methyl)benzoic acid] | 91 nM | – | 170 nM
O=C(O)c1ccc(CN(CC(F)(F)F)C(=O)c2ccc(Oc3ccccc3Cl)cc2)cc1 [Example 72, 4-((4-(2-Chlorophenoxy)-N-(2,2,2-trifluoroethyl)benzamido)methyl)benzoic acid] | 42 nM | – | 29 nM
CCCCN(Cc1ccc(C(=O)O)cc1)C(=O)c1ccc(Oc2ccccc2OC)cc1 [Example 65, 4-((N-Butyl-4-(2-methoxyphenoxy)benzamido)methyl)benzoic acid] | 4 nM | – | 5 nM
O=C(O)c1ccc(CN(C[C@H](O)Cc2ccccc2)C(=O)c2ccc(Oc3ccccc3F)cc2)cc1 [Example 20, (R)-4-((4-(2-Fluorophenoxy)-N-(2-hydroxy-3-phenylpropyl)-benzamido)methyl)benzoic acid] | 40 nM | – | 12 nM
O=C(O)c1ccc(CN(CCCc2cccc(F)c2)C(=O)c2ccc(Oc3ccccc3F)cc2)cc1 [Example 17, 4-((4-(2-Fluorophenoxy)-N-(3-(3-fluorophenyl)propyl)benzamido)methyl)benzoic acid] | 1 nM | – | 0.4 nM
COc1ccccc1Oc1ccc(C(=O)N(Cc2ccc(C(=O)O)cc2)CC(F)F)cc1 [Example 29, 4-((N-(2,2-Difluoroethyl)-4-(2-methoxyphenoxy)benzamido)-methyl)benzoic acid] | 43 nM | – | 34 nM
Cc1ccccc1Oc1ccc(C(=O)N(Cc2ccc(C(=O)O)cc2)CC2CC2)cc1 [Example 22, 4-((N-(Cyclopropylmethyl)-4-(o-tolyloxy)benzamido)methyl)benzoic acid] | 24 nM | – | 30 nM
CCCN(Cc1ccc(C(=O)O)cc1)C(=O)c1ccc(Oc2ccccc2OC)cc1 [Example 62, 4-((4-(2-Methoxyphenoxy)-N-propylbenzamido)methyl)benzoic acid] | 9 nM | – | 5 nM
COc1cccc(F)c1Oc1ccc(C(=O)N(Cc2ccc(C(=O)O)cc2)CC2CC2)cc1 [Example 67, 4-((N-(Cyclopropylmethyl)-4-(2-fluoro-6-methoxyphenoxy)benzamido)methyl)benzoic acid] | 5 nM | – | 7 nM
O=C(O)c1ccc(CN(CC(F)F)C(=O)c2ccc(Oc3ccccc3Cl)cc2)cc1 [Example 78, 4-((4-(2-Chlorophenoxy)-N-(2,2-difluoroethyl)benzamido)methyl)benzoic acid] | 170 nM | – | 390 nM
O=C(O)c1ccc(CN(C[C@@H]2C[C@H]2c2ccccc2)C(=O)c2ccc(Oc3ccccc3F)cc2)cc1 (relative stereo) [Example 18, 4-((4-(2-Fluorophenoxy)-N-((trans-2-phenylcyclopropyl)methyl)-benzamido)methyl)benzoic acid] | 2 nM | – | 1 nM
Cc1ccccc1Oc1ccc(C(=O)N(Cc2ccc(C(=O)O)cc2)CC(F)(F)F)cc1 [Example 70, 4-((4-(o-Tolyloxy)-N-(2,2,2-trifluoroethyl)benzamido)methyl)benzoic acid] | 140 nM | – | 47 nM
O=C(O)c1ccc(CN(CC2CC2)C(=O)c2ccc(Oc3ccccc3F)cc2F)cc1 [Example 54, 4-((N-(Cyclopropylmethyl)-2-fluoro-4-(2-fluorophenoxy)-benzamido)methyl)benzoic acid] | 26 nM | – | 27 nM
Cc1ccccc1Oc1ccc(C(=O)N(CCc2ccccc2)Cc2ccc(C(=O)O)cc2)cc1 [Example 25, 4-((N-Phenethyl-4-(o-tolyloxy)benzamido)methyl)benzoic acid] | 29 nM | – | 14 nM
COc1ccccc1Oc1ccc(C(=O)N(Cc2ccc(C(=O)O)cc2)CC2CC2)cc1 [Example 31, 4-((N-(Cyclopropylmethyl)-4-(2-methoxyphenoxy)benzamido)-methyl)benzoic acid] | 5 nM | – | 4 nM
COc1ccccc1Oc1ccc(C(=O)N(CCCc2ccccc2)Cc2ccc(C(=O)O)cc2)cc1 [Example 32, 4-((4-(2-Methoxyphenoxy)-N-(3-phenylpropyl)benzamido)-methyl)benzoic acid] | 0.4 nM | – | 2 nM
Cc1cccc(C)c1Oc1ccc(C(=O)N(CCc2ccccc2)Cc2ccc(C(=O)O)cc2)cc1 [Example 47, 4-((4-(2,6-Dimethylphenoxy)-N-phenethylbenzamido)methyl)benzoic acid] | 11 nM | – | 22 nM
COc1ccccc1Oc1ccc(C(=O)N(CCCc2cccc(F)c2)Cc2ccc(C(=O)O)cc2)cc1 [Example 33, 4-((N-(3-(3-Fluorophenyl)propyl)-4-(2-methoxyphenoxy)-benzamido)methyl)benzoic acid] | 0.4 nM | – | 0.3 nM
O=C(O)c1ccc(CN(C[C@@H](O)Cc2ccccc2)C(=O)c2ccc(Oc3ccccc3F)cc2)cc1 [Example 19, (S)-4-((4-(2-Fluorophenoxy)-N-(2-hydroxy-3-phenylpropyl)benzamido)methyl)benzoic acid] | 9 nM | – | 7 nM
O=C(O)c1ccc(CN(CCC2CC2)C(=O)c2ccc(Oc3c(F)cccc3F)cc2)cc1 [Example 38, 4-((N-(2-Cyclopropylethyl)-4-(2,6-difluorophenoxy)benzamido)-methyl)benzoic acid] | 140 nM | – | 36 nM
CCN(Cc1ccc(C(=O)O)cc1)C(=O)c1ccc(Oc2ccccc2Cl)cc1 [Example 76, 4-((4-(2-Chlorophenoxy)-N-ethylbenzamido)methyl)benzoic acid] | 140 nM | – | 130 nM
